# Where a name gives a salt, the structure may show the parent alone.
# What was measured:
# [1] = human, in vivo, po
# [2] = once daily by mouth, in the combination
# [3] = in vivo, cited from earlier work
# [4] = clinical; details: human, in vivo, po, 50 mg/m2
# [5] = test system: refractory solid tumors; details: cited from earlier work
# [6] = Sorafenib and sorafenib N-oxide steady-state plasma concentrations, course 1; format: in vivo, human; details: for concentration at 7 day / concentration at 13 day / concentration at 21 day: human, plasma, oral
# [7] = pediatric phase I single agent study, cited from earlier work
# [8] = Sorafenib first-dose pharmacokinetics in patients; format: in vivo, human; details: for CL/F (apparent oral clearance): first dose (day 1); for Ka: first dose; for Cmax / Tmax / half-life: human, plasma, po
# [9] = test system: circulating endothelial cells (CECs); experiment: Six-color flow cytometry of blood; format: in vivo, human; details: day 21, p = 0.01
# [10] = single-agent sorafenib, mean; cited from earlier work
# [11] = sorafenib 90 mg/m^2 twice daily, n 13, median (range)
# [12] = sorafenib 110 mg/m^2 twice daily, n 4, median (range)
# [13] = sorafenib 90 mg/m^2 oral, n 11, median (range)
# [14] = sorafenib 110 mg/m^2 oral, n 4, median (range)
compound,measurement,setting,value
"O=P1(N(CCCl)CCCl)NCCCO1 (stereo not shown) [cyclophosphamide, Cyclophosphamide]",cyclophosphamide absorption rate constant,[1],0.17 h⁻¹
same,cyclophosphamide apparent volume of distribution,[1]; 50 mg/m2,2.28 L/m^2
same,"recommended phase II dose, cyclophosphamide",[2],50 mg/m^2
same,clearance after intravenous administration in children,[3]; iv,2.9-4.23 L/h/m^2
same,mean apparent oral clearance in adults,[3]; po,6.18 L/h
same,published mean AUC at 600 mg/m^2 relative to median AUC of this study,"12-fold higher oral dosage, ref 34 versus this study",~ 11 times
same,BSA normalized apparent oral clearance in adults,"assuming average adult body surface area of 1.73 m^2, from ref 33",3.57 L/h/m^2
same,AUC(0-inf),[4],62.5 µM·h
"bevacizumab: VEGF-specific recombinant, humanized monoclonal antibody",dose-limiting toxicities,[5]; in vivo,no dose-limiting toxicities (DLTs) were observed
same,objective responses,"[5]; pediatric phase I, single agent",No objective responses were observed
CNC(=O)c1cc(Oc2ccc(NC(=O)Nc3ccc(Cl)c(C(F)(F)F)c3)cc2)cc[n+]1[O-] [sorafenib N-oxide],Sorafenib N-oxide Ctrough Day 7,[6]; [11],0.50 (0.11 – 4.5) mg/L
same,Sorafenib N-oxide Ctrough Day 13,[6]; [11],0.54 (0.17 – 3.4) mg/L
same,Sorafenib N-oxide Ctrough Day 7,[6]; [12],0.57 (0.37 – 1.5) mg/L
same,Sorafenib N-oxide Ctrough Day 13,[6]; [12],0.37 (0.33 – 0.92) mg/L
same,Sorafenib N-oxide Ctrough Day 21,[6]; [12],0.40 (0.20 – 0.78) mg/L
"CNC(=O)c1cc(Oc2ccc(NC(=O)Nc3ccc(Cl)c(C(F)(F)F)c3)cc2)ccn1 [sorafenib, Sorafenib tosylate]",concentration at 7 day,[6]; 90 mg/m^2 twice daily,3500 ng/mL
same,concentration at 13 day,[6]; 90 mg/m^2 twice daily,2500 ng/mL
same,concentration at 21 day,[6]; 90 mg/m^2 twice daily,4800 ng/mL
same,concentration at 7 day,[6]; 110 mg/m^2 twice daily,3000 ng/mL
same,concentration at 13 day,[6]; 110 mg/m^2 twice daily,2100 ng/mL
same,concentration at 21 day,[6]; 110 mg/m^2 twice daily,1600 ng/mL
same,maximum tolerated dose (MTD),[7]; twice daily,200 mg/m^2
same,Grade 3 DLTs,[7],"elevated lipase, hyponatremia, hand-foot syndrome (HFS), rash, hypertension, and elevated ALT"
same,objective responses,[7],No objective responses were observed
same,CL/F (apparent oral clearance),[8]; [13],44 mL/min/m^2
same,CL/F (apparent oral clearance),[8]; [14],39 mL/min/m^2
same,Ka,[8]; [13],0.10 (0.038 – 0.72) h^−1
same,Ka,[8]; [14],0.093 (0.080 – 0.15) h^−1
same,Cmax,[8]; 90 mg/m2,1100 ng/mL
same,Tmax,[8]; 90 mg/m2,8.7 h
same,half-life,[8]; 90 mg/m2,5.5 h
same,Cmax,[8]; 110 mg/m2,1600 ng/mL
same,Tmax,[8]; 110 mg/m2,11 h
same,half-life,[8]; 110 mg/m2,10 h
same,correlation of sorafenib steady-state concentrations with CECs,[9],inversely correlated
same,"metabolic conversion to sorafenib N-oxide, adult patients",[10],< 10%
same,"metabolic conversion to sorafenib N-oxide, children with AML",[10],33%

# Source: paper PMC3537913 (Clinical cancer research : an official journal of the …, 2012)
